# Assays:
# [1] = test system: Bermudagrass, Centipedegrass, St. Augustinegrass, Zoysiagrass; assay: Subsequent testing of spray applications on warm-season turfgrasses; format: in vivo; settings: Zoysiagrass and mixtures
# Description: (§1) Accordingly new treatments using aminocyclopyrachlor and its derivatives are needed for successful selective weed control in turf comprising warm-season turfgrasses.
# [2] = test system: cool-season turfgrasses; assay: Subsequent testing of spray applications on cool-season turfgrasses; format: in vivo; settings: most cool-season turfgrasses
# Description: as §1
# [3] = test system: Bermudagrass; settings: postemergence spray application, 31 g ai/ha; cited from earlier work
# [4] = test system: perennial ryegrass, fine fescue, Kentucky bluegrass, tall fescue, zoysiagrass, St. Augustinegrass, centipedegrass; settings: cited from earlier work
# [5] = test system: weeds; settings: mesotrione applied in a granular composition; cited from earlier work
SMILES,phytotoxicity of spray applications to warm-season turfgrasses [1],safety of spray applications to cool-season turfgrasses [2],injury to Bermudagrass [3] [%],"damage/phytotoxicity to turfgrass varieties, formulations in spray form ([4]; mesotrione applied as a liquid in spray form)","phytotoxicity to turfgrasses, granular composition ([4]; mesotrione applied in a granular composition)","weed control, granular composition [5]"
"COC(=O)c1nc(C2CC2)nc(N)c1Cl [Compound 1, methyl 6-amino-5-chloro-2-cyclopropyl-4-pyrimidinecarboxylate]",unacceptable phytotoxicity,sufficient safety,60,–,–,–
CS(=O)(=O)c1ccc(C(=O)C2C(=O)CCCC2=O)c([N+](=O)[O-])c1 [mesotrione],–,–,–,unacceptable levels of damage/phytotoxicity,reduced to insignificant levels,good weed control

# Source: patent US20110059848A1, “GRANULAR TURF SAFE HERBICIDAL COMPOSITIONS” (E. I. DU PONT DE NEMOURS AND COMPANY, priority 2007, published 2011)
